The subject of assay [1] is Trametes versicolor. The experiment in a line: Antifungal activity against Trametes versicolor after 3 to 5 days by paper disc method relative to 1227. Type of assay: functional.
In assay [2] the test system is Gloeophyllum trabeum. Put plainly: Antifungal activity against Gloeophyllum trabeum after 3 to 5 days by paper disc method relative to 1227. Type of assay: functional.

With `CC(C)C1CC[C@H]2C(CC[C@@H]3[C@]2(C)CCC[C@@]3(C)C(=O)O)C1` (stereo not given in full), in assay [1], the Ratio is on record as 26.67 and the “log(ratio)” value came to 1.426. In assay [2], the Ratio came out at 36.36 and the “log(ratio)” value stood at 1.5607.

Turning to `CC(C)C1CC[C@H]2C(CC[C@@H]3[C@]2(C)CCC[C@@]3(C)C(=O)OCC(O)CCl)C1` (stereo not given in full), in assay [1], the Ratio is reported as 26.67 and the “log(ratio)” value is reported as 1.426. For the same compound, in assay [2], the Ratio turned out to be 36.36 and the “log(ratio)” value was found to be 1.5607.

`CC(C)C1=CC23CC[C@@H]4[C@](C)(CCC[C@@]4(C)C(=O)O)[C@H]2CC1CC3C(=O)O` (stereo not given in full): in assay [1], the Ratio came to 26.67 and the “log(ratio)” value was found to be 1.426. For the same compound, in assay [2], the Ratio came out at 36.36 and the “log(ratio)” value is 1.5607.

Consider `CC(C)C1=CC23CC[C@@H]4[C@](C)(CCC[C@@]4(C)C(=O)OCC(O)CCl)[C@H]2CC1CC3C(=O)OCC(O)CCl` (stereo not given in full), for which, in assay [1], the Ratio is recorded as 26.67 and the “log(ratio)” value worked out at 1.426. Besides, in assay [2], the Ratio stood at 36.36 and the “log(ratio)” value was 1.5607.

For `CCOC(=O)[C@]1(C)CCC[C@@]2(C)[C@H]1CC=C1C=C(C(C)C)CC[C@@H]12`, in assay [1], the Ratio was 26.67 and the “log(ratio)” value was found to be 1.426. In assay [2], the Ratio was found to be 36.36 and the “log(ratio)” value is 1.5607.

With `CC(C)C1=CC2=CC[C@@H]3[C@](C)(CCC[C@@]3(C)C(=O)OCC(O)CCl)[C@H]2CC1` (stereo not given in full), in assay [1], the Ratio worked out at 26.67 and the “log(ratio)” value is on record as 1.426. For the same compound, in assay [2], the Ratio is 36.36 and the “log(ratio)” value is listed as 1.5607.

With `CC(C)c1ccc2c(c1)CC[C@H]1[C@](C)(C(=O)OCC(O)CCl)CCC[C@]21C` (stereo not given in full), in assay [1], the Ratio is given as 30 and the “log(ratio)” value worked out at 1.4771. In assay [2], the Ratio is recorded as 40.91 and the “log(ratio)” value is reported as 1.6118.

As for `CC(C)C1CC[C@H]2C(CC[C@@H]3[C@]2(C)CCC[C@@]3(C)C(=O)OCC(O)C[N+](C)(C)C)C1` (stereo not given in full), the figures for the Ratio in assay [1] and in assay [2] were 53.33 and 59.09, respectively. In addition, the results for the “log(ratio)” value in assay [1] and in assay [2] were 1.727 and 1.7715, respectively.

As for `CC[N+](CC)(CC)CC(O)COC(=O)[C@]1(C)CCC[C@@]2(C)[C@H]1CCC1CC(C(C)C)CC[C@@H]12` (stereo not given in full), in assay [1], the Ratio was determined as 56.67 and the “log(ratio)” value is recorded as 1.7533. Further, in assay [2], the Ratio came to 59.09 and the “log(ratio)” value worked out at 1.7715.

In the case of `CC[N+](CC)(CC(O)COC(=O)[C@]1(C)CCC[C@@]2(C)[C@H]1CCC1CC(C(C)C)CC[C@@H]12)CC1CO1` (stereo not given in full), in assay [1], the Ratio stood at 40 and the “log(ratio)” value came out at 1.6021. In addition, in assay [2], the Ratio was determined as 59.09 and the “log(ratio)” value amounted to 1.7715.

Turning to `CCN(CC)CC(O)COC(=O)[C@]1(C)CCC[C@@]2(C)[C@H]1CCC1CC(C(C)C)CC[C@@H]12` (stereo not given in full), in assay [1], the Ratio is 33.33 and the “log(ratio)” value is 1.5229. In assay [2], the Ratio stood at 50 and the “log(ratio)” value was determined as 1.699.

Take `CC(C)C1=CC2=CC[C@@H]3[C@](C)(CCC[C@@]3(C)C(=O)OCC(O)C[N+](C)(C)CC3CO3)[C@H]2CC1` (stereo not given in full): in assay [1], the Ratio amounted to 46.67 and the “log(ratio)” value is 1.669. Moreover, in assay [2], the Ratio was 63.64 and the “log(ratio)” value is 1.8037.

`CC(C)c1ccc2c(c1)CC[C@H]1[C@](C)(C(=O)OCC(O)C[N+](C)(C)C)CCC[C@]21C` (stereo not given in full): in assay [1], the Ratio is given as 60 and the “log(ratio)” value worked out at 1.7782. For the same compound, in assay [2], the Ratio is reported as 81.82 and the “log(ratio)” value is 1.9128.

In the case of `CC[N+](CC)(CC)CC(O)COC(=O)[C@]1(C)CCC[C@]2(C)c3ccc(C(C)C)cc3CC[C@@H]12` (stereo not given in full), in assay [1], the Ratio was 56.67 and the “log(ratio)” value came to 1.7533. In addition, in assay [2], the Ratio amounted to 81.82 and the “log(ratio)” value was found to be 1.9128.

Consider `CC(C)c1ccc2c(c1)CC[C@H]1[C@](C)(C(=O)OCC(O)CN(C)C)CCC[C@]21C` (stereo not given in full), for which, in assay [1], the Ratio was found to be 43.33 and the “log(ratio)” value is 1.6368. In assay [2], the Ratio came to 68.18 and the “log(ratio)” value was 1.8337.

With `CC(C)c1ccc2c(c1)CC[C@H]1[C@](C)(C(=O)OCC(O)C[N+](C)(C)CC3CO3)CCC[C@]21C` (stereo not given in full), in assay [1], the Ratio was 50 and the “log(ratio)” value was 1.699. Moreover, in assay [2], the Ratio is on record as 77.27 and the “log(ratio)” value stood at 1.888.

Consider `CC(C)C1=CC23CC[C@@H]4[C@](C)(CCC[C@@]4(C)C(=O)OCC(O)C[N+](C)(C)C)[C@H]2CC1CC3C(=O)OCC(O)C[N+](C)(C)C` (stereo not given in full), for which, in assay [1], the Ratio was 70 and the “log(ratio)” value was 1.8451. Besides, in assay [2], the Ratio was 81.82 and the “log(ratio)” value came to 1.9128.

On to `CC[N+](CC)(CC)CC(O)COC(=O)C1CC2C[C@H]3C1(C=C2C(C)C)CC[C@@H]1[C@]3(C)CCC[C@@]1(C)C(=O)OCC(O)C[N+](CC)(CC)CC` (stereo not given in full), for which, in assay [1], the Ratio amounted to 66.67 and the “log(ratio)” value is given as 1.8239. Moreover, in assay [2], the Ratio is reported as 77.27 and the “log(ratio)” value is on record as 1.888.

On to `CC(C)C1=CC23CC[C@@H]4[C@](C)(CCC[C@@]4(C)C(=O)OCC(O)CN(C)C)[C@H]2CC1CC3C(=O)OCC(O)CN(C)C` (stereo not given in full), for which, in assay [1], the Ratio is 46.67 and the “log(ratio)” value was 1.669. Also, in assay [2], the Ratio worked out at 59.09 and the “log(ratio)” value is listed as 1.7715.

For the compound `CC(C)C1=CC23CC[C@@H]4[C@](C)(CCC[C@@]4(C)C(=O)OCC(O)C[N+](C)(C)CC4CO4)[C@H]2CC1CC3C(=O)OCC(O)C[N+](C)(C)CC1CO1` (stereo not given in full), in assay [1], the Ratio was 60 and the “log(ratio)” value is on record as 1.7782. Also, in assay [2], the Ratio is reported as 77.27 and the “log(ratio)” value is 1.888.

As to `CC[N+](CC)(CC(O)COC(=O)C1CC2C[C@H]3C1(C=C2C(C)C)CC[C@@H]1[C@]3(C)CCC[C@@]1(C)C(=O)OCC(O)C[N+](CC)(CC)CC1CO1)CC1CO1` (stereo not given in full), in assay [1], the Ratio is given as 63.33 and the “log(ratio)” value was 1.8016. Further, in assay [2], the Ratio was determined as 77.27 and the “log(ratio)” value turned out to be 1.888.

For the compound `CC(C)C1=CC2=CC[C@@H]3[C@](C)(CCC[C@@]3(C)C(=O)OCC(O)C[N+](C)(C)CC[N+](C)(C)CC(O)COC(=O)[C@]3(C)CCC[C@@]4(C)[C@H]3CC=C3C=C(C(C)C)CC[C@@H]34)[C@H]2CC1` (stereo not given in full), in assay [1], the Ratio is on record as 56.67 and the “log(ratio)” value was 1.7533. For the same compound, in assay [2], the Ratio is given as 72.73 and the “log(ratio)” value stood at 1.8617.

Regarding `CC[N+](CC)(CC)CC(O)COC(=O)C1C2C[C@H]3C(C=C2C(C)C)(CC[C@@H]2[C@]3(C)CCC[C@@]2(C)C(=O)OCC(O)C[N+](CC)(CC)CC)C1C(=O)OCC(O)C[N+](CC)(CC)CC.[Cl-].[Cl-].[Cl-]` (stereo not given in full), in assay [1], the Ratio came to 86.7 and the “inhibition zone (IZ)” value came to 26 mm. In assay [2], the Ratio came out at 95.5 and the “inhibition zone (IZ)” value came out at 21 mm.

For `CC(C)C1=CC2=CC[C@@H]3[C@](C)(CCC[C@@]3(C)C(=O)O)[C@H]2CC1` [ABIETIC ACID], in assay [1], the Ratio was 26.67 and the “log(ratio)” value was determined as 1.426. For the same compound, in assay [2], the Ratio amounted to 36.36 and the “log(ratio)” value is reported as 1.5607.

Consider `CC(C)c1ccc2c(c1)CC[C@H]1[C@](C)(C(=O)O)CCC[C@]21C` [DEHYDROABIETIC ACID], for which, in assay [1], the Ratio was determined as 30 and the “log(ratio)” value came out at 1.4771. In addition, in assay [2], the Ratio came out at 40.91 and the “log(ratio)” value worked out at 1.6118.

The values are drawn from ChEMBL document CHEMBL3352395, “Quantitative structure-activity relationship of antifungal activity of rosin derivatives” (2015).
